The record followed here is ChEMBL document CHEMBL4842331, “Targeted Discovery of the Polyene Macrolide Hexacosalactone A from Streptomyces by Reporter-Guided Selection of Fermentation Media” (J Nat Prod, 2021).

The subject of one experiment is Botryosphaeria dothidea. Briefly: Antifungal activity against Botryosphaeria dothidea assessed as inhibition of fungal growth at 20 ug/disk by paper disk diffusion method. The experiment is classed as functional, organism-based. The settings on record: dose 20.0 µg. A general note: Agar diffusion results depend on both activity and mobility in agar.
Another experiment concerns Escherichia coli. Briefly: Antibacterial activity against Escherichia coli DH5alpha assessed as inhibition of bacterial growth at 20 ug/disk by paper disk diffusion method. The class given is functional, organism-based. The settings on record: DH5[alpha], dose 20.0 µg.
In a further experiment the test system is Rhizoctonia solani. Briefly: Antifungal activity against Rhizoctonia solani assessed as inhibition of fungal growth at 20 ug/disk by paper disk diffusion method. The experiment is classed as functional, organism-based. The settings on record: dose 20.0 µg.
Another experiment deals with K562. Nature of the experiment: Cytotoxicity against human K562 cells assessed as reduction in cell viability by MTT assay. The experiment is classed as functional, cell-based. In general terms: Formazan colour is commonly taken as a measure of viable cells.
For another experiment, the system named is Alternaria alternata. Nature of the experiment: Antifungal activity against Alternaria alternata assessed as inhibition of fungal growth at 20 ug/disk by paper disk diffusion method. The experiment is classed as functional, organism-based. The settings on record: dose 20.0 µg.
The test system of a further experiment is Staphylococcus aureus. Nature of the experiment: Antibacterial activity against Staphylococcus aureus ATCC 25923 assessed as inhibition of bacterial growth by paper disk diffusion method. The class given is functional.
Another experiment relates to MDA-MB-231. Briefly: Cytotoxicity against human MDA-MB-231 cells assessed as reduction in cell viability by MTT assay. The experiment is classed as functional, cell-based.
Another experiment deals with Phytophthora capsici. Nature of the experiment: Antifungal activity against Phytophthora capsici assessed as inhibition of fungal growth at 20 ug/disk by paper disk diffusion method. The experiment is classed as functional, organism-based. The settings on record: dose 20.0 µg.
The next experiment relates to NCI-H1299. Briefly: Cytotoxicity against human NCI-H1299 cells assessed as reduction in cell viability by MTT assay. The experiment is classed as functional, cell-based.
For the next experiment, the system named is Salmonella typhimurium. Briefly: Antibacterial activity against Salmonella enterica serovar typhimurium UK-1X8956 assessed as inhibition of bacterial growth at 20 ug/disk by paper disk diffusion method. The class given is functional, organism-based. The settings on record: Salmonella enterica subsp. enterica serovar Typhimurium, dose 20.0 µg.
The next experiment has as its system Proteus vulgaris. Briefly: Antibacterial activity against Proteus vulgaris CPCC 160013 assessed as inhibition of bacterial growth by paper disk diffusion method. The class given is functional.
For the next experiment, the system named is Pseudomonas aeruginosa. Briefly: Antibacterial activity against Pseudomonas aeruginosa PAO1 assessed as inhibition of bacterial growth at 20 ug/disk by paper disk diffusion method. The experiment is classed as functional, organism-based. The settings on record: dose 20.0 µg.
Experiment [1] concerns Mycolicibacterium smegmatis. Briefly: Antibacterial activity against Mycobacterium smegmatis mc2 155 assessed as inhibition of bacterial growth at 20 ug/disk by paper disk diffusion method. The class given is functional, organism-based. The settings on record: dose 20.0 µg.
Another experiment has as its system Valsa ambiens. Nature of the experiment: Antifungal activity against Valsa ambiens assessed as inhibition of fungal growth at 20 ug/disk by paper disk diffusion method. The settings on record: Cytospora leucosperma; dose 20.0 µg. The experiment is classed as functional, organism-based.

pIC50: −log10 of the molar value. Values after ≈ are worked out from the molar mass of the structure shown. Active and inactive are the calls of the source. No cut-off for these calls is given here. Where only a bound is given, the exact number is not on record here.

With `CO[C@@H]1C[C@H](O)[C@@H](C)[C@H](O)[C@@H](C)C[C@@H](C)C(=O)C(C)[C@H](C(C)C)OC(=O)/C(C)=C/C=C/C(C)=C/C=C/C(C)=C\C[C@H](OC(=O)/C=C/C(=O)NC2=C(O)CCC2=O)[C@@H]1C` (some centres undefined), the outcome in the experiment on Botryosphaeria dothidea, in the experiment on Escherichia coli, with Rhizoctonia solani, in the experiment with Alternaria alternata, in the experiment with Phytophthora capsici and in the experiment on Salmonella typhimurium was inactive. Further, the outcome (in the experiment on Pseudomonas aeruginosa; in experiment [1]; with Valsa ambiens) was inactive. The pIC50 with K562, with MDA-MB-231 and in the experiment on NCI-H1299 was less than 4.70 throughout. Moreover, the minimum inhibitory concentration (MIC) in the experiment on Staphylococcus aureus and with Proteus vulgaris was 12.5 µg/mL (≈ 15.4 µM) each time.

In general, pIC50 refers to the negative decadic logarithm of the IC50, by convention in mol/L. A word on the MIC: it is the lowest concentration that inhibits growth of the organism.
